Test results: patent publication US12371454B2, “Cyclic peptide compound having Kras inhibitory action” (priority 2019, dated 2025)
Starred links: 1 amine or outer side, 2 acyl side, 3 side chain; linkers in the order of their positions; H or OH if unused. Positions of bridges follow the written chain, without caps; N, C: chain ends. Non-standard residues stand in square brackets, D forms with d. Residues, ends and D or L forms follow the SMILES beside them. *: point of attachment. hPhe(3,5-F2-4-CF3) = N[C@@H](CCc1cc(F)c(C(F)(F)F)c(F)c1)C(=O)O; hPhe(3-Cl-4-CF3) = N[C@@H](CCc1ccc(C(F)(F)F)c(Cl)c1)C(=O)O; NMePhe(4-CF3) = CN[C@@H](Cc1ccc(C(F)(F)F)cc1)C(=O)O; NMeAbu(4,4,4-F3) = CN[C@@H](CC(F)(F)F)C(=O)O; NMePhe(4-Cl) = CN[C@@H](Cc1ccc(Cl)cc1)C(=O)O; NMePhe(4-Me) = CN[C@@H](Cc1ccc(C)cc1)C(=O)O; X54 = O=C([C@H](Cc1cccc(Br)c1F)N[*:1])[*:2]; NMeGly(cPent) = CN[C@H](C(=O)O)C1CCCC1; Phe(3-I) = N[C@@H](Cc1cccc(I)c1)C(=O)O; Phe(4-F) = N[C@@H](Cc1ccc(F)cc1)C(=O)O; Pro(4,4-F2) = O=C(O)[C@@H]1CC(F)(F)CN1; NMeY = CN[C@@H](Cc1ccc(O)cc1)C(=O)O; NMeCha = CN[C@@H](CC1CCCCC1)C(=O)O; NMeChg = CN[C@H](C(=O)O)C1CCCCC1; NMeF = CN[C@@H](Cc1ccccc1)C(=O)O; NMeD = CN[C@@H](CC(=O)O)C(=O)O; NMeL = CN[C@@H](CC(C)C)C(=O)O; NMeNva = CCC[C@H](NC)C(=O)O; NMeV = CN[C@H](C(=O)O)C(C)C; d(β3hA) = C[C@@H](N)CC(=O)O; NMeAbu = CC[C@H](NC)C(=O)O; NMeA = CN[C@@H](C)C(=O)O; NMeAib = CNC(C)(C)C(=O)O; Nle = CCCC[C@H](N)C(=O)O; Piperidide = C1CCN(*)CC1; Pra = C#CC[C@H](N)C(=O)O; Pyrrolidide = C1CCN(*)C1; Ac5c = NC1(C(=O)O)CCCC1; Aze = O=C(O)[C@@H]1CCN1; CF3 = FC(F)(F)*; Sar = CNCC(=O)O

Molecular target: T1, Kras and SOS1 (biotin-tagged human Kras loaded with GDP, His-tagged human SOS1) (Homo sapiens, UniProt P01116, G12D)
T1 construct: made in house; host or cells: E. coli (stated for Kras only)
Assay: Protein-protein interaction inhibition between Kras and SOS1 (KrasGl2D-SOS PPI) using AlphaScreen
Assay type: binding
Settings: AlphaScreen; biotin-tagged human Kras loaded with GDP, His-tagged human SOS1; read-out: KRAS G12D-SOS PPI IC50
In short: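 Read-out is acceptor-bead light at 520-620 nm, arising when 680 nm-irradiated nickel donor beads pass singlet oxygen to streptavidin acceptors. The bead pair links His-tagged SOS1 with biotin-tagged, GDP-bound Kras from E. coli.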

T1 sequence (P01116 1-188 isoform P01116-2 G12D): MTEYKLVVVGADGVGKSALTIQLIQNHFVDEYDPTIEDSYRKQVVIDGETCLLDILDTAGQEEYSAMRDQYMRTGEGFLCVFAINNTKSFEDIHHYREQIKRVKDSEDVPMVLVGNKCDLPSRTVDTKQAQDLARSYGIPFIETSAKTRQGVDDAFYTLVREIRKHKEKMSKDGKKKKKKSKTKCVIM

Structure (SMILES) | IC50 [nM]
CCC[C@H]1C(=O)N[C@@H]([C@@H](C)CC)C(=O)N(C)CC(=O)N(C)CC(=O)N(C)[C@@H](Cc2ccc(C)cc2)C(=O)N(C)CC(=O)N[C@@H](CCc2ccc(C(F)(F)F)c(Cl)c2)C(=O)N2CC(F)(F)C[C@H]2C(=O)NC2(CCCC2)C(=O)N(C)[C@@H](C2CCCCC2)C(=O)N(C)[C@H](C(=O)N2CCCC2)CC(=O)N1C [Compound 1296] ([NMeNva]I[Sar][Sar][NMePhe(4-Me)][Sar][hPhe(3-Cl-4-CF3)][Pro(4,4-F2)][Ac5c][NMeChg][NMeD]-Pyrrolidide; lactam N-11) | 0.59
C#CC[C@@H]1NC(=O)[C@H](Cc2cccc(I)c2)NC(=O)CN(C)C(=O)[C@H](Cc2ccc(OC(F)(F)F)cc2)N(C)C(=O)[C@@H]2CCN2C(=O)CN(C)C(=O)[C@H]([C@@H](C)CC)NC(=O)[C@H](CC(C)C)N(C)C(=O)C[C@@H](C(=O)N2CCCCC2)N(C)C(=O)[C@H](CC(C)C)NC(=O)C(C)(C)N(C)C1=O [Compound 1298] ([NMeL]I[Sar][Aze][NMeY](CF3)[Sar][Phe(3-I)][Pra][NMeAib]L[NMeD]-Piperidide; lactam N-11) | 28
CC[C@H](C)[C@@H]1NC(=O)[C@H](CC(F)(F)F)N(C)C(=O)C[C@@H](C(=O)N2CCCC2)N(C)C(=O)[C@H](C2CCCCC2)N(C)C(=O)C2(CCCC2)NC(=O)[C@@H]2CC(F)(F)CN2C(=O)[C@H](CCc2cc(F)c(C(F)(F)F)c(F)c2)NC(=O)CN(C)C(=O)[C@H](Cc2ccc(C(F)(F)F)cc2)N(C)C(=O)CN(C)C(=O)CN(C)C1=O [Compound 1303] ([NMeAbu(4,4,4-F3)]I[Sar][Sar][NMePhe(4-CF3)][Sar][hPhe(3,5-F2-4-CF3)][Pro(4,4-F2)][Ac5c][NMeChg][NMeD]-Pyrrolidide; lactam N-11) | 0.72
CCCC[C@@H]1NC(=O)[C@H](Cc2cccc(Br)c2F)NC(=O)CN(C)C(=O)[C@H](Cc2ccc(OC)cc2)N(C)C(=O)[C@@H]2CCN2C(=O)[C@H](C)N(C)C(=O)[C@H]([C@@H](C)CC)NC(=O)[C@H](CC)N(C)C(=O)C[C@@H](C(=O)N2CCCCC2)N(C)C(=O)[C@H](CC(C)C)NC(=O)C(C)(C)N(C)C1=O [Compound 1304] ([NMeAbu]I[NMeA][Aze][NMeY](Me)[Sar][X54][Nle][NMeAib]L[NMeD]-Piperidide; lactam N-11) | 85
CCCC[C@@H]1NC(=O)[C@H](Cc2ccc(F)cc2)NC(=O)CN(C)C(=O)[C@H](Cc2ccc(Cl)cc2)N(C)C(=O)CN(C)C(=O)CN(C)C(=O)[C@H]([C@@H](C)CC)NC(=O)[C@H](CC(C)C)N(C)C(=O)C[C@@H](C(=O)N2CCCCC2)N(C)C(=O)[C@H](CC(C)C)NC(=O)C(C)(C)N(C)C1=O [Compound 1305] ([NMeL]I[Sar][Sar][NMePhe(4-Cl)][Sar][Phe(4-F)][Nle][NMeAib]L[NMeD]-Piperidide; lactam N-11) | 240
CCC[C@H]1C(=O)N[C@@H]([C@@H](C)CC)C(=O)N(C)CC(=O)N(C)CC(=O)N(C)[C@@H](Cc2ccc(C)cc2)C(=O)N(C)CC(=O)N[C@@H](CCc2cc(F)c(C(F)(F)F)c(F)c2)C(=O)N2CC(F)(F)C[C@H]2C(=O)NC2(CCCC2)C(=O)N(C)[C@@H](C2CCCCC2)C(=O)N(C)[C@H](C(=O)N2CCCC2)CC(=O)N1C [Compound 1306] ([NMeNva]I[Sar][Sar][NMePhe(4-Me)][Sar][hPhe(3,5-F2-4-CF3)][Pro(4,4-F2)][Ac5c][NMeChg][NMeD]-Pyrrolidide; lactam N-11) | 0.5
CC[C@H](C)[C@@H]1NC(=O)[C@H](CC(C)C)N(C)C(=O)C[C@@H](C)NC(=O)[C@H](C2CCCC2)N(C)C(=O)C2(CCCC2)NC(=O)[C@H](C)NC(=O)[C@H](CCc2ccc(C(F)(F)F)c(Cl)c2)NC(=O)CN(C)C(=O)[C@H](Cc2ccc(C)cc2)N(C)C(=O)[C@@H]2CCN2C(=O)[C@H](C)N(C)C1=O [Compound 1307] (cyclo(A[Ac5c][NMeGly(cPent)][d(β3hA)][NMeL]I[NMeA][Aze][NMePhe(4-Me)][Sar][hPhe(3-Cl-4-CF3)])) | 2.7
C#CC[C@@H]1NC(=O)[C@H](Cc2cccc(I)c2)NC(=O)CN(C)C(=O)[C@H](Cc2ccccc2)N(C)C(=O)[C@@H]2CCN2C(=O)[C@H](C)N(C)C(=O)[C@H]([C@@H](C)CC)NC(=O)[C@H](CC(C)C)N(C)C(=O)C[C@@H](C(=O)N2CCCCC2)N(C)C(=O)[C@H](CC(C)C)NC(=O)C(C)(C)N(C)C1=O [Compound 1313] ([NMeL]I[NMeA][Aze][NMeF][Sar][Phe(3-I)][Pra][NMeAib]L[NMeD]-Piperidide; lactam N-11) | 65
CC[C@H](C)[C@@H]1NC(=O)[C@H](CC(C)C)N(C)C(=O)C[C@@H](C(=O)N2CCCCC2)N(C)C(=O)[C@H](C(C)C)N(C)C(=O)C2(CCCC2)NC(=O)[C@@H](C)NC(=O)[C@H](CCc2ccc(C(F)(F)F)c(Cl)c2)NC(=O)CN(C)C(=O)[C@H](CC2CCCCC2)N(C)C(=O)[C@@H]2CCN2C(=O)[C@H](C)N(C)C1=O [Compound 1314] ([NMeL]I[NMeA][Aze][NMeCha][Sar][hPhe(3-Cl-4-CF3)][dA][Ac5c][NMeV][NMeD]-Piperidide; lactam N-11) | 90
